Converted amounts (≈) assume the structure as drawn. Each block holds one compound with its values, some of them ahead of it.
Key:
MRSA [1] = experiment: MICs of antibiotics against MRSA in the presence of flufenamic acid (synergy); format: cell-based, Staphylococcus aureus; conditions: for susceptibility of MRSA to the antibiotic in the presence of FLF: with FLF (FIG. 4B, 4C)
S. aureus MSSA = experiment: MIC by broth dilution method; format: cell-based; conditions: Staphylococcus aureus, 24 hours of incubation
S. aureus MRSA = experiment: MIC by broth dilution method; format: cell-based, Staphylococcus aureus
Description: (§1) FLF was assayed for inhibitory activity against Methicillin-resistant staphylococcus aureus (MRSA). In this regard, Methicillin-resistant Staphylococcus aureus (MRSA) was cultured overnight and 200-fold diluted in 2 mL of LB containing various concentrations of FLF. After additional incubation at 37° C. for 8 hours, cell densities were measured by recoding OD at 600 nm.
(§2) FLF was examined for inhibitory activity against various bacteria. Staphylococcus epidermidis, Bacillus subtilis, Listeria monocytogenes and Enterococcus faecium were cultured overnight and 200-fold diluted in 2 mL of LB containing various concentrations of FLF. Cell densities were determined by measuring the OD at 600 nm after incubation at 37° C. for 8 hours. The MICs of FLF were determined using a broth dilution method. In brief, bacteria were inoculated into LB containing serially diluted concentrations of FLF in 96-well microplates. After 24 hours of incubation, bacterial growth was examined. Antibacterial activity of FLF was tested over various Gram-positive bacteria including Staphylococcus epidermidis, Bacillus subtilis, Listeria monocytogenes, and Enterococcus faecium.

B. subtilis = experiment: MIC by broth dilution method; format: cell-based; conditions: Bacillus subtilis, 24 hours of incubation
Description: as §2

E. faecium = experiment: MIC by broth dilution method; format: cell-based; conditions: Enterococcus faecium, 24 hours of incubation
Description: as §2

L. monocytogenes = experiment: MIC by broth dilution method; format: cell-based; conditions: Listeria monocytogenes, 24 hours of incubation
Description: as §2

S. epidermidis = experiment: MIC by broth dilution method; format: cell-based; conditions: Staphylococcus epidermidis, 24 hours of incubation
Description: as §2

[2] = system: Methicillin-resistant Staphylococcus aureus (MRSA); experiment: Growth inhibition, cell density OD 600 nm; format: cell-based; conditions: 8 h, read-out: growth inhibited
Description: as §1

Bacillus subtilis = experiment: Growth inhibition, cell density OD 600 nm; format: cell-based; conditions: 20~40 μg/mL FLF, 8 hours
Description: as §2

Enterococcus faecium = experiment: Growth inhibition, cell density OD 600 nm; format: cell-based; conditions: 20~40 μg/mL FLF, 8 hours
Description: as §2

Listeria monocytogenes = experiment: Growth inhibition, cell density OD 600 nm; format: cell-based; conditions: 20~40 μg/mL FLF, 8 hours
Description: as §2

[3] = system: Staphylococcus epidermidis; experiment: Growth inhibition, cell density OD 600 nm; format: cell-based; conditions: 20~40 μg/mL FLF, 8 hours
Description: as §2

SA1606 [4] = target: T1, SA1606 (Staphylococcus aureus, UniProt Q2FXE2); experiment: Binding affinity by isothermal titration calorimetry; design: species or system S. aureus; conditions: ITC, 10 mM HEPES pH 7.0, 3% DMSO; read-out: dissociation constant (Kd)
T1 sequence (Q2FXE2 1-277 N135K/V136A/R184H/A227G/T230I/K274T): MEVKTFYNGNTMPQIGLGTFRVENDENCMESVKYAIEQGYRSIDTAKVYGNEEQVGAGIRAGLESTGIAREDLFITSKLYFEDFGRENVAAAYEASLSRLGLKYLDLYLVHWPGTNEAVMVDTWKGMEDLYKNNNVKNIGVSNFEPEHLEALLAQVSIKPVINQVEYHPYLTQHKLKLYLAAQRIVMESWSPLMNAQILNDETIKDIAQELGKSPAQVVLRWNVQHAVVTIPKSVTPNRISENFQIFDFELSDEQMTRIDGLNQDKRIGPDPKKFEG
Excerpt: (§3) Genes of SA1606 (GenBank number: BAB42874) and […] (GenBank number: BAB43292) were amplified using PCR with the genomic DNA of S. aureus N315 serving as a template. PCR primers were 5′-[…] […]-3′ (SEQ ID NO: 4) and 5′-[…]-3′ (SEQ ID NO: 5) for SA1606, and 5′-[…]-3′ (SEQ ID NO: 6) and 5′-5 […]-3′ (SEQ ID NO: 7) for SA2001. Ncol and Xhol restriction sites were incorporated into the forward primer sequences and the reverse primer sequences, respectively. The PCR products were digested with Ncol and Xhol and inserted into Ncol/Xhol-digested pET28a vectors (Novagen). The DNAs 10 thus ligated were transformed into E. coli BL21 DE3 (Invitrogen). Coding sequences of the cloned genes SA1606 and SA2001 were confirmed by nucleotide sequencing. Recombinant SA1606 and SA2001 with histidine tag at the C-terminus were expressed in E. coli and then loaded into Hi-Trap chelating 15 columns (GE Healthcare) equilibrated with buffer A (20 mM HEPES, pH 7.5, 50 mM imadazole and 500 mM NaCl). […]
(§4) Binding affinity for SA1606 and SA2001 of FLF was measured using VP-ITC Micro calorimeter (MicroCal Inc). […] Thereafter, the affinity of FLF for the proteins were calculated on the basis of the heat generated upon the binding of FLF to the proteins. The data was analyzed with ORIGIN software (MicroCal Inc).

SA2001 [5] = target: T2, SA2001 (Staphylococcus aureus, UniProt Q2FW57, N2D); experiment: as above; design: species or system S. aureus; conditions: ITC, 10 mM HEPES pH 7.0, 3% DMSO; read-out: dissociation constant (Kd)
T2 sequence (Q2FW57 1-279 N2D): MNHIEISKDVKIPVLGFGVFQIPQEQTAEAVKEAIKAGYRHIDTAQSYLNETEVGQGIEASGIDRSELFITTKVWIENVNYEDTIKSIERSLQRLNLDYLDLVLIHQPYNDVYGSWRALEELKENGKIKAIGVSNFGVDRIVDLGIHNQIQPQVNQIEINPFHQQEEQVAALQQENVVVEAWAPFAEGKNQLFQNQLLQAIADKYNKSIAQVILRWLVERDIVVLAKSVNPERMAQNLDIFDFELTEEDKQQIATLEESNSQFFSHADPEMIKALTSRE
Excerpt: as §3, §4

SA1606 [6] = target: T1, SA1606; experiment: Aldo-keto reductase enzymatic assay (NADPH absorbance 340 nm, methylglyoxal); format: biochemical, S. aureus; conditions: 0.5 mM NADPH, 5 mM methylglyoxal, 10 μM enzyme, pH 7.0
Description: (§5) Aldo-keto reductase (AKR) activity was measured to examine whether FLF inhibits the enzymatic activities of SA1606 and SA2001 on the basis of the data of Example 8 showing the binding of FLF to SA16006 and SA2001. On the whole, bacterial AKR catalyzes the reduction of various chemicals with NADPH. […] As is evidenced in Example 6, SA1606 and SA2001 have structural and functional similarity with the human aldo-keto reductase AKR1C3 and the bacterial aldo-keto reductase DkgA. Thus, the enzymatic activity of […] was measured to analyze the inhibitory activity of FLF. The reaction for evaluating enzymatic activity was comprised of 0.5 mM NADPH, 5 mM methylglyoxal and 10 μM aldo-keto reductase in 50 mM sodium phosphate buffer, pH 7.0. Absorbance at 340 nm of the reaction was measured for 10 min to calculate the consumption of NADPH.

SA2001 [7] = target: T3, SA2001 (Staphylococcus aureus, UniProt Q2FW57); experiment: as above; format: biochemical, S. aureus; conditions: 0.5 mM NADPH, 5 mM methylglyoxal, 10 μM enzyme, pH 7.0
T3 sequence (Q2FW57 1-279 N2D): T2 sequence (Q2FW57 1-279 N2D)
Description: as §5

MRSA [8] = experiment: Screening of Prestwick chemical library for inhibitory activity against bacteria; format: cell-based, S. aureus; conditions: 100 μg/mL, 24 hours
Description: To screen compounds having inhibitory activity against bacteria, MRSA was 200-fold diluted in 0.2 mL of LB in 96-well microplates and cultured overnight at 37° C. with agitation at 180 RPM. Prestwick chemical library was added at a final concentration of 100 μg/mL per well. The microplates were incubated at 37° C. for 24 hours with agitation at 180 RPM and the optical density at 600 nm was measured.

- MICs of antibiotic against MRSA (MRSA [1]; 10 μg/ml FLF): 128 µg/mL
- MICs of antibiotic against MRSA (MRSA [1]; 20 μg/ml FLF): 64 µg/mL
- MICs of antibiotic against MRSA (MRSA [1]; 30 μg/ml FLF): 16 µg/mL
- MICs of antibiotic against MRSA (MRSA [1]; 40 μg/ml FLF): 4 µg/mL
- MICs of antibiotic against MRSA (MRSA [1]; No FLF): 128 µg/mL
Structure (SMILES): CC(=O)OCC1=C(C(=O)O)N2C(=O)[C@@H](NC(=O)Cc3cccs3)[C@H]2SC1 [Cephalothin]
- susceptibility of MRSA to the antibiotic in the presence of FLF (MRSA [1]): far more susceptible

- MICs of antibiotic against MRSA (MRSA [1]; 10 μg/ml FLF): 64 µg/mL
- MICs of antibiotic against MRSA (MRSA [1]; 20 μg/ml FLF): 32 µg/mL
- MICs of antibiotic against MRSA (MRSA [1]; 30 μg/ml FLF): 16 µg/mL
- MICs of antibiotic against MRSA (MRSA [1]; 40 μg/ml FLF): 8 µg/mL
- MICs of antibiotic against MRSA (MRSA [1]; No FLF): 128 µg/mL
Structure (SMILES): CCn1cc(C(=O)O)c(=O)c2cc(F)c(N3CCNCC3)cc21 [Norfloxacin]

Structure (SMILES): O=C(O)c1ccccc1Nc1cccc(C(F)(F)F)c1 [FLF, flufenamic acid]
- MIC (S. aureus MSSA): 64 µg/mL (≈ 228 µM)
- MICs (S. aureus MRSA; S. aureus MRSA, 24 hours of incubation): 64 µg/mL
- MIC (S. aureus MRSA; Staphylococcus aureus, MRSA, 24 h, read-out: MICs): 64 µg/mL (≈ 228 µM)
- MIC (B. subtilis): 32 µg/mL (≈ 114 µM)
- MIC (E. faecium): 32 µg/mL (≈ 114 µM)
- MIC (L. monocytogenes): 32 µg/mL (≈ 114 µM)
- MIC (S. epidermidis): 64 µg/mL (≈ 228 µM)
- inhibition at 40 µg/mL [2]: 90%
- growth inhibited (Bacillus subtilis): 90%
- growth inhibited (Enterococcus faecium): 90%
- growth inhibited (Listeria monocytogenes): 90%
- growth inhibited [3]: 90%
- synergistic effect with classical antibiotics (MRSA [1]; FLF in combination with Norfloxacin, Oxacillin or Cephalothin, MRSA): synergistically inhibited
- Kd (SA1606 [4]): 14.5 µM
- Kd (SA2001 [5]): 38.1 µM
- enzymatic activity (reduction of methylglyoxal with NADPH) in the presence of FLF (SA1606 [6]): inhibited
- enzymatic activity (reduction of methylglyoxal with NADPH) in the presence of FLF (SA2001 [7]): inhibited
- inhibitory activity against bacteria (OD 600 nm) in library screen (MRSA [8]): most inhibitory

Structure (SMILES): Cc1onc(-c2ccccc2)c1C(=O)N[C@@H]1C(=O)N2[C@@H]1SC(C)(C)[C@@H]2C(=O)O [Oxacillin]
- MICs of antibiotic against MRSA (MRSA [1]; 10 μg/ml FLF): 256 µg/mL
- MICs of antibiotic against MRSA (MRSA [1]; 30 μg/ml FLF): 32 µg/mL
- MICs of antibiotic against MRSA (MRSA [1]; 40 μg/ml FLF): 8 µg/mL
- MICs of antibiotic against MRSA (MRSA [1]; No FLF): >256 µg/mL
- susceptibility of MRSA to the antibiotic in the presence of FLF (MRSA [1]): far more susceptible
